Patent US9409892B2, “4-hydroxy-isoquinoline compounds as HIF hydroxylase inhibitors” (FIBROGEN, INC., priority 2012, dated 2016)

Key:
[1] = target: PHD2 (EGLN1) (Homo sapiens (Human), UniProt Q9GZT9); test: HIF-PH assay (14CO2 capture), PHD2 enzyme inhibition; type: biochemical; details: Table 1; individual measurement; read-out: IC50 (μM) PHD2
[2] = target: PHD1 (EGLN2) (Homo sapiens (Human), UniProt Q96KS0); test: HIF-PH assay (14CO2 capture), PHD1 enzyme inhibition; type: biochemical; details: Table 1; for IC50: individual measurement, read-out: IC50 (μM) PHD1; for PHD2/PHD1: ratio of the IC50 of the compound for each enzyme
Sequence of PHD1 (EGLN2) (Q96KS0 whole entry): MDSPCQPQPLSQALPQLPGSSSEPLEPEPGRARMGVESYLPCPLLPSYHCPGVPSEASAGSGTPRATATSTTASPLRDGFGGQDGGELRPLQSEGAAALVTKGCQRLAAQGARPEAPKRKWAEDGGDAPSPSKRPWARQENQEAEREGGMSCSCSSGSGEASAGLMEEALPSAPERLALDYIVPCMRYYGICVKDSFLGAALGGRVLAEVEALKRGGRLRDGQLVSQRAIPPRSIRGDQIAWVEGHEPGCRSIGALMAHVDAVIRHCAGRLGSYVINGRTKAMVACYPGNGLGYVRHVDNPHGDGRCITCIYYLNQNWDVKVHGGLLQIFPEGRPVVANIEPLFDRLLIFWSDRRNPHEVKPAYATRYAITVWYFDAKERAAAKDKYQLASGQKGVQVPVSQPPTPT

Sequence of PHD2 (EGLN1) (Q9GZT9 whole entry): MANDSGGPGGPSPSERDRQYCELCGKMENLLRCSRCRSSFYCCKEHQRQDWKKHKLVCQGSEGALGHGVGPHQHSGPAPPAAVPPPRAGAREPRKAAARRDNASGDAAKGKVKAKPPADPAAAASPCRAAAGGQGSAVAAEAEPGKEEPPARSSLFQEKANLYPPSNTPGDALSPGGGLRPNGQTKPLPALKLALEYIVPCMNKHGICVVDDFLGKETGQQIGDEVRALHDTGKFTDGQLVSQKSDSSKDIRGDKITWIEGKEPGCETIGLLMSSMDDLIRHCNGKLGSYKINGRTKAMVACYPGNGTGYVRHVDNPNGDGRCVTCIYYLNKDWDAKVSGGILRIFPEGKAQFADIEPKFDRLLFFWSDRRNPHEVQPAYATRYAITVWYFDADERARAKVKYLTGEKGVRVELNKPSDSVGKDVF

Row | SMILES | IC50 [1] [µM] | IC50 [2] [µM] | PHD2/PHD1 [2]
1 | O=C(O)CCNC(=O)c1ncc2cc(NC(=O)Nc3ccc(F)cc3)ccc2c1O [Compound 141, 3-({7-[3-(4-Fluoro-phenyl)-ureido]-4-hydroxy-isoquinoline-3-carbonyl}-amino)-propionic acid] | 37.8 | 3 | 13
2 | O=C(O)CCCNC(=O)c1ncc2cc(NC(=O)Nc3ccc(F)cc3)ccc2c1O [Compound 142, 4-([7-[3-(4-Fluoro-phenyl)-ureido]-4-hydroxy-isoquinoline-3-carbonyl]-amino)-butyric acid] | 56.4 | 4.12 | 14
3 | CC(C)(CNC(=O)c1nc(-c2ccccc2)c2cc(Oc3ccccc3)ccc2c1O)C(=O)O [Compound 143, 3-[(4-Hydroxy-7-phenoxy-1-phenyl-isoquinoline-3-carbonyl)-amino]-2,2-dimethyl-propionic acid] | 88.4 | 11.1 | 8
4 | O=C(O)CCNC(=O)c1nc(-c2ccccc2)c2cc(Oc3ccccc3)ccc2c1O [Compound 144, 3-[(4-Hydroxy-7-phenoxy-1-phenyl-isoquinoline-3-carbonyl)-amino]-propionic acid] | 31.7 | 6.4 | 5
5 | O=C(O)CCNC(=O)c1nc(C(F)(F)F)c2cc(Oc3ccccc3)ccc2c1O [Compound 145, 3-[(4-Hydroxy-7-phenoxy-1-trifluoromethyl-isoquinoline-3-carbonyl)-amino]-propionic acid] | 101 | 18.6 | 5
6 | CC(C)(CNC(=O)c1ncc2cc(Cc3ccccc3)ccc2c1O)C(=O)O [Compound 146, 3-[(7-Benzyl-4-hydroxy-isoquinoline-3-carbonyl)-amino]-2,2-dimethyl-propionic acid] | 181 | 23.7 | 8
7 | O=C(O)CCCCNC(=O)c1nc(-c2cncc(F)c2)c2cc(Oc3ccccc3)ccc2c1O [Compound 147, 5-{[1-(5-Fluoro-pyridin-3-yl)-4-hydroxy-7-phenoxy-isoquinoline-3-carbonyl]-amino}-pentanoic acid] | 77 | 5.09 | 15
8 | O=C(O)CCCNC(=O)c1ncc2cc(-c3ccc(F)cc3)ccc2c1O [Compound 148, 4-{[7-(4-Fluoro-phenyl)-4-hydroxy-isoquinoline-3-carbonyl]-amino}-butyric acid] | 24.5 | 2.88 | 9
9 | O=C(O)CCCCNC(=O)c1ncc2cc(-c3ccc(F)cc3)ccc2c1O [Compound 149, 5-{[7-(4-Fluoro-phenyl)-4-hydroxy-isoquinoline-3-carbonyl]-amino}-pentanoic acid] | 87 | 18.5 | 5
10 | CC(C)(CNC(=O)c1ncc2cc(-c3ccc(F)cc3)ccc2c1O)C(=O)O [Compound 150, 3-{[7-(4-Fluoro-phenyl)-4-hydroxy-isoquinoline-3-carbonyl]-amino}-2,2-dimethyl-propionic acid] | 114 | 22.9 | 5
11 | Cn1nc(C(F)(F)F)cc1-c1nc(C(=O)NCC(C)(C)C(=O)O)c(O)c2ccc(Oc3ccccc3)cc12 [Compound 151, 3-{[4-Hydroxy-1-(2-methyl-5-trilluoromethyl-2H-pyrazol-3-yl)-7-phenoxy-isoquinoline-3-carbonyl]-amino}-2,2-dimethyl-propionic acid] | 111 | 12.8 | 9
12 | CC(C)(CC(=O)O)NC(=O)c1nc(C#N)c2cc(OCc3ccccc3)ccc2c1O [Compound 152, 3-[(7-Benzyloxy-1-cyano-4-hydroxy-isoquinoline-3-carbonyl)-amino]-3-methyl-butyric acid] | 55.1 | 4.35 | 13
13 | CC(C)(CNC(=O)c1nc(C#N)c2cc(OCc3ccccc3)ccc2c1O)C(=O)O [Compound 153, 3-[(7-Benzyloxy-1-cyano-4-hydroxy-isoquinoline-3-carbonyl)-amino]-2,2-dimethyl-propionic acid] | 30.5 | 2.58 | 12
14 | N#Cc1nc(C(=O)NCC2(C(=O)O)CCC2)c(O)c2ccc(Sc3ccccc3)cc12 [Compound 154, 1-{[(1-Cyano-4-hydroxy-7-phenylsulfanyl-isoquinoline-3-carbonyl)-amino]-methyl}-cyclobutanecarboxylic acid] | 1.9 | 0.11 | 18
15 | Cc1ccccc1Oc1ccc2c(C#N)nc(C(=O)NCC(C)(C)C(=O)O)c(O)c2c1 [Compound 155, 3-[(1-Cyano-4-hydroxy-6-o-tolyloxy-isoquinoline-3-carbonyl)-amino]-2,2-dimethyl-propionic acid] | 42.1 | 5.25 | 8
16 | CC(C)(CNC(=O)c1nc(C#N)c2cc(OC3CCCCC3)ccc2c1O)C(=O)O [Compound 156, 3-[(1-Cyano-7-cyclohexyloxy-4-hydroxy-isoquinoline-3-carbonyl)-amino]-2,2-dimethyl-propionic acid] | 23.5 | 1.49 | 16
17 | CC(C)(CNC(=O)c1c(O)c2ccc(Oc3ccccc3)cc2c(C#N)[n+]1[O-])C(=O)O [Compound 157, 3-(2-Carboxy-2-methylpropylcarbamoyl)-1-cyano-4-hydroxy-7-phenoxyisoquinoline 2-oxide] | 200 | 13.6 | 15
18 | N#Cc1c2cc(Oc3ccccc3)ccc2c(O)c(C(=O)NCCCC(=O)O)[n+]1[O-] [Compound 158, 3-(3-Carboxypropylcarbamoyl)-1-cyano-4-hydroxy-7-phenoxyisoquinoline 2-oxide] | 21 | 1.66 | 13
19 | N#Cc1nc(C(=O)NCC2(C(=O)O)CCC2)c(O)c2ccc(OC3CCCCC3)cc12 [Compound 159, 1-{[(1-Cyano-7-cyclohexyloxy-4-hydroxy-isoquinoline-3-carbonyl)-amino]-methyl}-cyclobutanecarboxylic acid] | 7.9 | 0.91 | 9
20 | CC(C)(CNC(=O)c1nc(C#N)c2cc(S(=O)(=O)C3CCCCC3)ccc2c1O)C(=O)O [Compound 160, 3-[(1-Cyano-7-cyclohexanesulfonyl-4-hydroxy-isoquinoline-3-carbonyl)-amino]-2,2-dimethyl-propionic acid] | 200 | 17.4 | 12
21 | N#Cc1nc(C(=O)NCC2(C(=O)O)CCC2)c(O)c2ccc(S(=O)(=O)C3CCCCC3)cc12 [Compound 161, 1-{[(1-Cyano-7-cyclohexanesulfonyl-4-hydroxy-isoquinoline-3-carbonyl)-amino]-methyl}-cyclobutanecarboxylic acid] | 200 | 19.8 | 10
22 | CC(C)(CNC(=O)c1nc(C#N)c2cc(NC(=O)NCc3ccccc3)ccc2c1O)C(=O)O [Compound 162, 3-{[7-(3-Benzyl-ureido)-1-cyano-4-hydroxy-isoquinoline-3-carbonyl]-amino}-2,2-dimethyl-propionic acid] | 24.1 | 2.35 | 10
23 | N#Cc1nc(C(=O)NCCC[C@H](N)C(=O)O)c(O)c2ccc(Oc3ccccc3)cc12.O=C(O)C(F)(F)F [Compound 163, (S)-2-[Amino-5-(1-cyano-4-hydroxy-7-phenoxy-isoquinoline-3-carbonyl)-amino]-pentanoic acid 2,2,2-trifluoroacetic acid (1:1)] | > 200 | 43.6 | 5
24 | CC(C)(CNC(=O)c1nc(C#N)c2cc(Cc3ccccc3)ccc2c1O)C(=O)O [Compound 164, 3-[(7-Benzyl-1-cyano-4-hydroxy-isoquinoline-3-carbonyl)-amino]-2,2-dimethyl-propionic acid] | 18.6 | 1.35 | 14
25 | N#Cc1nc(C(=O)NC(CC(=O)O)c2cccc(Cl)c2)c(O)c2ccc(Oc3ccccc3)cc12 (stereo not drawn) [Compound 165, 3-(3-Chloro-phenyl)-3-[(1-cyano-4-hydroxy-7-phenoxy-isoquinoline-3-carbonyl)-amino]-propionic acid] | 28.1 | 1.51 | 19
26 | N#Cc1nc(C(=O)NCC(C(=O)O)C2CC2)c(O)c2ccc(Oc3ccccc3)cc12 (stereo not drawn) [Compound 166, 3-[(1-Cyano-4-hydroxy-7-phenoxy-isoquinoline-3-carbonyl)-amino]-2-cyclopropyl-propionic acid] | 12.2 | 0.42 | 29
27 | O=C(NCC(C(=O)O)C1CC1)c1ncc2cc(Oc3ccccc3)ccc2c1O (stereo not drawn) [Compound 167, 2-Cyclopropyl-3-[(4-hydroxy-7-phenoxy-isoquinoline-3-carbonyl)-amino]-propionic acid] | 100 | 9.57 | 10
28 | O=C(NCC(C(=O)O)c1ccccc1)c1ncc2cc(Oc3ccccc3)ccc2c1O (stereo not drawn) [Compound 169, 3-[(4-Hydroxy-7-phenoxy-isoquinoline-3-carbonyl)-amino]-2-phenyl-propionic acid] | 153 | 26.6 | 6
29 | N#Cc1nc(C(=O)N[C@@H](CC(=O)O)c2ccccc2F)c(O)c2ccc(Oc3ccccc3)cc12 [Compound 170, 3-(S)-[(1-Cyano-4-hydroxy-7-phenoxy-isoquinoline-3-carbonyl)-amino]-3-(2-fluoro-phenyl)-propionic acid] | 32.2 | 2.76 | 12
30 | Cc1ccccc1[C@H](CC(=O)O)NC(=O)c1nc(C#N)c2cc(Oc3ccccc3)ccc2c1O [Compound 171, 3-(S)-[(1-Cyano-4-hydroxy-7-phenoxy-isoquinoline-3-carbonyl)-amino]-3-o-tolyl-propionic acid] | 45.7 | 5.26 | 9
